# Test results published in US7462600B2, “Macrolides” (Pfizer Inc, priority 2004, dated 2008).
# How the values were obtained:
# Type in all cases: cell-based
# [1] = test system: Streptococcus pyogenes 1079; assay: MIC, microtiter broth dilution (NCCLS M100-S14), S. pyogenes 1079 (ermB); details: Streptococcus pyogenes 1079
# Description: (§1) The assay described herein includes a panel of bacterial strains assembled to include a variety of target pathogenic species, including representatives of macrolide resistance mechanisms that have been characterized. In many cases, both the macrolide-susceptible parent strain and the macrolide-resistant strain derived from it are available to provide a more accurate assessment of the compound's ability to circumvent the resistance mechanism. The assay is performed in microtiter trays and interpreted according to Performance Standards for Antimicrobial Susceptibility Testing; 14th Informational Supplement (M100-S14), published by The National Committee for Clinical Laboratory Standards (NCCLS) guidelines; the MIC is used to compare strains. Compounds are initially dissolved in DMSO as 40 mg/ml stock solutions.
# [2] = test system: Streptococcus pneumoniae 1016; assay: MIC, microtiter broth dilution (NCCLS M100-S14), S. pneumoniae 1016 (susceptible); details: Streptococcus pneumoniae 1016
# Description: as §1
# [3] = test system: Streptococcus pneumoniae 1175; details: Streptococcus pneumoniae 1175; microtiter broth dilution
# Description: as §1
# [4] = test system: Streptococcus pneumoniae 1095; details: Streptococcus pneumoniae 1095; microtiter broth dilution
# Description: as §1
# [5] = test system: Haemophilus influenzae 1218; assay: MIC, microtiter broth dilution (NCCLS M100-S14), H. influenzae 1218 (susceptible); details: Haemophilus influenzae 1218
# Description: as §1
SMILES,MIC S. pyogenes 1079 [1] [µg/mL],MIC S. pneumo. 1016 [2] [µg/mL],MIC S. pneumo. 1175 [3] [µg/mL],MIC S. pneumo. 1095 [4] [µg/mL],MIC H. influenzae 1218 [5] [µg/mL]
CCC1OC(=O)C(C)C(=O)C(C)C(OC2OC(C)CC(N(C)C)C2O)C(C)(OC)CC(C)C(=O)C(C)C2N(CC3CN(Cc4cccc(C#N)c4)C3)C(=O)OC12C (centres unmarked) [4.08],>64.00,<0.06,<0.06,32,0.12
CCC1OC(=O)C(C)C(=O)C(C)C(OC2OC(C)CC(N(C)C)C2O)C(C)(OC)CC(C)C(=O)C(C)C2N(CC3CN(Cc4ccn[nH]4)C3)C(=O)OC12C (centres unmarked) [4.09],>64.00,<0.06,0.5,32,0.12
CCC1OC(=O)C(C)C(=O)C(C)C(OC2OC(C)CC(N(C)C)C2O)C(C)(OC)CC(C)C(=O)C(C)C2N(CC3CN(Cc4cnc5ccccc5c4)C3)C(=O)OC12C (centres unmarked) [4.10],16,<0.06,<0.06,1,<0.06
CCC1OC(=O)C(C)C(=O)C(C)C(OC2OC(C)CC(N(C)C)C2O)C(C)(OC)CC(C)C(=O)C(C)C2N(CC3CN(Cc4c[nH]c5ccccc45)C3)C(=O)OC12C (centres unmarked) [4.11],64,<0.06,2,4,1
CCC1OC(=O)C(C)C(=O)C(C)C(OC2OC(C)CC(N(C)C)C2O)C(C)(OC)CC(C)C(=O)C(C)C2N(CC3CN(Cc4cnc5ccccc5n4)C3)C(=O)OC12C (centres unmarked) [4.12],64,<0.06,0.12,8,1
CCC1OC(=O)C(C)C(=O)C(C)C(OC2OC(C)CC(N(C)C)C2O)C(C)(OC)CC(C)C(=O)C(C)C2N(CC3CN(Cc4ccnc5ccccc45)C3)C(=O)OC12C (centres unmarked) [4.13],32,<0.06,<0.06,0.5,1
CCC1OC(=O)C(C)C(=O)C(C)C(OC2OC(C)CC(N(C)C)C2O)C(C)(OC)CC(C)C(=O)C(C)C2N(CC3CN(Cc4cccc5ncccc45)C3)C(=O)OC12C (centres unmarked) [4.15],32,<0.06,<0.06,<0.06,0.25
CCC1OC(=O)C(C)C(=O)C(C)C(OC2OC(C)CC(N(C)C)C2O)C(C)(OC)CC(C)C(=O)C(C)C2N(CC3CN(Cc4nc5ccccc5[nH]4)C3)C(=O)OC12C (centres unmarked) [4.16],>64.00,<0.06,0.25,2,0.5
CCC1OC(=O)C(C)C(=O)C(C)C(OC2OC(C)CC(N(C)C)C2O)C(C)(OC)CC(C)C(=O)C(C)C2N(CC3CN(Cc4cccc5nccnc45)C3)C(=O)OC12C (centres unmarked) [4.17],64,<0.06,0.12,0.5,0.25
CCC1OC(=O)C(C)C(=O)C(C)C(OC2OC(C)CC(N(C)C)C2O)C(C)(OC)CC(C)C(=O)C(C)C2N(CC3CN(Cc4c[nH]c5cnccc45)C3)C(=O)OC12C (centres unmarked) [4.19],64,<0.06,1,<0.06,0.5
CCC1OC(=O)C(C)C(=O)C(C)C(OC2OC(C)CC(N(C)C)C2O)C(C)(OC)CC(C)C(=O)C(C)C2N(CC3CN(Cc4cccc5nc[nH]c45)C3)C(=O)OC12C (centres unmarked) [4.20],16,<0.06,0.25,0.12,0.25
CCC1OC(=O)C(C)C(=O)C(C)C(OC2OC(C)CC(N(C)C)C2O)C(C)(OC)CC(C)C(=O)C(C)C2N(CC3CN(Cc4cnn(-c5cccc(F)c5)c4)C3)C(=O)OC12C (centres unmarked) [4.21],64,<0.06,<0.06,2,0.5
CCC1OC(=O)C(C)C(=O)C(C)C(OC2OC(C)CC(N(C)C)C2O)C(C)(OC)CC(C)C(=O)C(C)C2N(CC3CN(Cc4n[nH]c5ccccc45)C3)C(=O)OC12C (centres unmarked) [4.22],32,<0.06,0.25,2,0.12
CCC1OC(=O)C(C)C(=O)C(C)C(OC2OC(C)CC(N(C)C)C2O)C(C)(OC)CC(C)C(=O)C(C)C2N(CC3CN(Cc4n[nH]c5cc(Cl)ccc45)C3)C(=O)OC12C (centres unmarked) [4.23],16,<0.06,0.12,4,<0.06
CCC1OC(=O)C(C)C(=O)C(C)C(OC2OC(C)CC(N(C)C)C2O)C(C)(OC)CC(C)C(=O)C(C)C2N(CC3CN(Cc4ccc5cnccn45)C3)C(=O)OC12C (centres unmarked) [4.24],64,<0.06,<0.06,0.5,0.5
CCC1OC(=O)C(C)C(=O)C(C)C(OC2OC(C)CC(N(C)C)C2O)C(C)(OC)CC(C)C(=O)C(C)C2N(CC3CN(Cc4ccc5nccn5c4)C3)C(=O)OC12C (centres unmarked) [4.25],64,<0.06,0.31,0.38,0.62
CCC1OC(=O)C(C)C(=O)C(C)C(OC2OC(C)CC(N(C)C)C2O)C(C)(OC)CC(C)C(=O)C(C)C2N(CC3CN(Cc4cnc5ncccn45)C3)C(=O)OC12C (centres unmarked) [4.26],>64.00,<0.06,2,2,0.25
CCC1OC(=O)C(C)C(=O)C(C)C(OC2OC(C)CC(N(C)C)C2O)C(C)(OC)CC(C)C(=O)C(C)C2N(CC3CN(Cc4cn5cccnc5n4)C3)C(=O)OC12C (centres unmarked) [4.27],>64.00,<0.06,4,>64.00,1
CCC1OC(=O)C(C)C(=O)C(C)C(OC2OC(C)CC(N(C)C)C2O)C(C)(OC)CC(C)C(=O)C(C)C2N(CC3CN(Cc4cnc5cnccn45)C3)C(=O)OC12C (centres unmarked) [4.28],>64.00,<0.06,1,8,0.25
CCC1OC(=O)C(C)C(=O)C(C)C(OC2OC(C)CC(N(C)C)C2O)C(C)(OC)CC(C)C(=O)C(C)C2N(CC3CN(Cc4ccc5ccccc5c4)C3)C(=O)OC12C (centres unmarked) [4.29],16,<0.06,<0.06,2,0.12
CCC1OC(=O)C(C)C(=O)C(C)C(OC2OC(C)CC(N(C)C)C2O)C(C)(OC)CC(C)C(=O)C(C)C2N(CC3CN(Cc4ccn(-c5cccnc5)n4)C3)C(=O)OC12C.O=CO (centres unmarked) [4.30],>64.00,<0.06,0.25,>64.00,0.5
CCC1OC(=O)C(C)C(=O)C(C)C(OC2OC(C)CC(N(C)C)C2O)C(C)(OC)CC(C)C(=O)C(C)C2N(CC3CN(Cc4ccn(-c5ccccn5)n4)C3)C(=O)OC12C.O=CO (centres unmarked) [4.31],>64.00,<0.06,<0.06,32,0.5
CCC1OC(=O)C(C)C(=O)C(C)C(OC2OC(C)CC(N(C)C)C2O)C(C)(OC)CC(C)C(=O)C(C)C2N(CC3CN(C(=O)c4cccc5ncccc45)C3)C(=O)OC12C (centres unmarked) [4.32],64,<0.06,<0.06,0.5,1
CCC1OC(=O)C(C)C(=O)C(C)C(OC2OC(C)CC(N(C)C)C2O)C(C)(OC)CC(C)C(=O)C(C)C2N(CC3CN(C(=O)c4ccc5ncccc5c4)C3)C(=O)OC12C (centres unmarked) [4.33],64,<0.06,0.25,1,1
CCC1OC(=O)C(C)C(=O)C(C)C(OC2OC(C)CC(N(C)C)C2O)C(C)(OC)CC(C)C(=O)C(C)C2N(CC3CN(C(=O)c4cnn5ccccc45)C3)C(=O)OC12C (centres unmarked) [4.35],>64.00,<0.06,0.12,1,1
